The values below come from article PMC8892522 (Proceedings of the National Academy of Sciences of the …, 2022).

Assay [1] has as its target T1, soluble epoxide hydrolase (sEH) (Homo sapiens, UniProt P34913).
T1 sequence (P34913 230-555): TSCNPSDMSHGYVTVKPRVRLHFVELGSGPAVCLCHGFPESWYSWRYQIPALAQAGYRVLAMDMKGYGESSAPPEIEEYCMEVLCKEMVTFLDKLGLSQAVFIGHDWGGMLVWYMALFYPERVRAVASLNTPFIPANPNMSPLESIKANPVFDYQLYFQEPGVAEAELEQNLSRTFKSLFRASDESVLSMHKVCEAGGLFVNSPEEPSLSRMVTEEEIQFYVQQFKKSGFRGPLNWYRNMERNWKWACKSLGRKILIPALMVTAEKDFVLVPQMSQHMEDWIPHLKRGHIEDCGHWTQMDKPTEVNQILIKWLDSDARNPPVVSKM
Kind of assay: cocrystal structure. The class given is binding.

Assay [2] concerns the target T2, soluble epoxide hydrolase (sEH) (Mus musculus, UniProt P34914).
T2 sequence (P34914 1-554): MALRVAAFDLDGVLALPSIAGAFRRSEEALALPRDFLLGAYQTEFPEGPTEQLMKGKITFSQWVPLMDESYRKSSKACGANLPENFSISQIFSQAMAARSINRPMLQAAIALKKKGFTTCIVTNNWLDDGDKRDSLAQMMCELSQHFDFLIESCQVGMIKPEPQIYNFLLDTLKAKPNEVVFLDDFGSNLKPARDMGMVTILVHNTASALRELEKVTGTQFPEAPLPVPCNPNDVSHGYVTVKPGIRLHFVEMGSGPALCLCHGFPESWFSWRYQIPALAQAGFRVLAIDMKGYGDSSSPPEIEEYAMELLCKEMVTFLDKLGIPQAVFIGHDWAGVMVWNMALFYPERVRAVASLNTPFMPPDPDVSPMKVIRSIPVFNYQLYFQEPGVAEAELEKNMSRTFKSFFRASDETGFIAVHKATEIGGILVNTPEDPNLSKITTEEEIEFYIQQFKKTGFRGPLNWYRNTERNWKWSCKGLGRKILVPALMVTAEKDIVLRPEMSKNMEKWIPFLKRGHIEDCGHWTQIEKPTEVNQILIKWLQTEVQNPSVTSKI
Kind of assay: fluorescent substrate. It is filed as biochemical.

What is called Kd is a measure of binding affinity in units of concentration. A lower Kd goes with tighter binding. The term IC50 denotes the point on the concentration scale where inhibition reaches its midpoint. Lower therefore signals inhibition by little substance. Compound `C=C(C)[C@H](CC=C(C)C)Cc1c(O)cc(OC)c2c1O[C@H](c1ccc(O)cc1O)CC2=O` [kurarinone] registered a dissociation constant (Kd) in assay [1] of 1450 nM. In assay [2], this compound gave an IC50 of 420 nM.
